{"source": "patent US7772272B2", "about": "“Method for enhancing glucose uptake into warm-blooded animal adipocytes” (Daiichi Sankyo Company, Limited, priority 2003, dated 2010)", "key": {"[1]": {"tested_on": "C57BL/6J mouse adipocytes", "assay": "Glucose uptake test using isolated adipocytes from pravastatin-dosed C57BL/6J mice", "type": "in vivo", "details": "isolated adipocytes from pravastatin-dosed C57BL/6J mice (normal mice), insulin, 3H-2-deoxyglucose", "procedure": "(§1) • (i) Epididymal adipose tissue was excised from a group administered with pravastatin for 1 week and a non-dosed group of C57BL/ksj-db/db mice (n=5). The excised adipose tissue was handled under conditions of 37° C. at all times. The adipose tissue was cut into small pieces with a scissors, followed by the addition of medium (DMEM, 1 mM sodium pyruvate, 25 mM HEPES pH 7.4, 0.1% BSA, 100 u/ml penicillin, 0.1 mg/ml streptomycin) containing 1 mg/ml of collagenase I (Worshington), and shaking at 37° C. and 80 rpm. Following the reaction, 2.5 volumes of the aforementioned medium were added, the adipocytes were screened out by passing the cell suspension through a 260 μm mesh sieve, and again passed through a 100 μm mesh sieve to prepare an adipocyte suspension.\n(§2) An adipocyte suspension was prepared for C57BL/6J mice (normal mice) in the same manner as described above. • (ii) The glucose uptake test was carried out in the manner as described below. […] After cutting out the oil layer of the upper layer containing adipocytes with a knife, it was transferred to a glass vial containing 4 ml of Hionic Fluor (Perkin-Elmer) liquid scintillation counter cocktail followed by measurement of specific radioactivity. The amount of measured radioactivity of the ^3H-2-deoxyglucose was used as an indicator of the amount of glucose taken up by the cells. […]"}, "C57BL/ksj-db/db mice [2]": {"tested_on": "C57BL/ksj-db/db mice", "assay": "Glucose tolerance test using pravastatin-dosed mice", "type": "in vivo, mouse", "details": "pravastatin in feed for 2 weeks, 60 minutes after administration (glucose 2 g/kg i.p.), non-dose group 517 mg/dl", "procedure": "(§3) A group administered with pravastatin by mixing in feed for 2 weeks and a non-dosed group of C57BL/ksj-db/db mice (n=5) were fasted for 16 hours starting on the day before the start of the test. After measuring the body weight of each animal, glucose solution (0.5 g/l) was administered intraperitoneally to 2 g/kg, and blood samples were collected from the tail vein immediately before the start of administration and at 30, 60, 90 and 120 minutes after the start of administration followed by measurement of blood glucose levels."}, "KKAy mice": {"tested_on": "KKAy mice", "assay": "Blood glucose levels after administration of pravastatin in feed, KKAy mice", "type": "in vivo, mouse", "details": "pravastatin mixed in feed (0.03% and 0.06% wt/wt), dose group, non-dose group 521 mg/dl", "procedure": "(§4) C57BL/ksj-db/db mice (male, age 5 weeks) and KKAy mice (female, age 4 weeks) were purchased from Clea Japan, and used in the test after acclimating to the test environment for 1 week. The mice were housed 5 animals to a cage and given unrestricted access to feed (F2, Funabashi Farm) and water.\n(§5) The body weights of the animals were measured and blood samples were collected on the day the test started, and the animals were divided into two groups of 5 animals per cage based on their body weights and blood glucose levels. Blood samples were collected at the start of the test and days 4, 7 and 14 after the start of the test in the case of the C57BL/ksj-db/db mice, and at the start of the test and on days 4, 7, 14 and 28 after the start of the test in the case of the KKAy mice. Blood samples were collected from the tail vein in an amount equal to one heparinized capillary tube.\n(§6) Pravastatin powder was added to the F2 powder to 0.03% and 0.06% (wt/wt), uniformly mixed and provided to the animals in individual cages. The amount of feed and general behaviour were checked at least once a day.\n(§7) Blood glucose levels were measured on the days when blood samples were collected."}, "C57BL/ksj-db/db mice [3]": {"tested_on": "C57BL/ksj-db/db mice", "assay": "Blood glucose levels after administration of pravastatin in feed, C57BL/ksj-db/db mice", "type": "in vivo, mouse", "details": "pravastatin mixed in feed (0.03% and 0.06% wt/wt), dose group, non-dose group 633 mg/dl", "procedure": "as §4, §5, §6, §7"}, "3T3-L1 adipocytes": {"tested_on": "3T3-L1 adipocytes", "assay": "Glucose uptake enhancing action (in vitro), 3H-2-deoxyglucose uptake in 3T3-L1 adipocytes", "type": "cell-based", "details": "10 μM test compound for 72 hours, insulin added, P<0.001", "experimental": "Preadipocyte cell line 3T3-L1 was purchased from the American Type Culture Collection (ATCC). The 3T3-L1 cells were plated onto a 24-well, collagen-coated plate and cultured to saturation in growth medium (DMEM, 25 mM glucose, 10% FCS, 100 u/ml penicillin, 0.1 mg/ml streptomycin) under conditions of 37° C. and 5% CO2. Five days after cell proliferation had reached a saturated state, the medium was replaced with medium (DMEM, 25 mM glucose, 10% FCS, 100 u/ml penicillin, 0.1 mg/ml streptomycin) to which had been added 1 μM insulin, 0.5 mM 3-isobutyl-1-methylxanthine and 1 μM dexamethazone to initiate adipocyte differentiation. Two days later, the medium was replaced with growth medium containing 1 μM insulin followed by additionally culturing the cells for 2 days. Subsequently, the medium was replaced with fresh growth medium every 3 days, and the 3T3-L1 adipocytes were prepared on day 10 after the start of differentiation. […]\nMeasurement of glucose uptake was carried out in the manner described below. […] 160 μl of the cell lysate were mixed with 4 ml of Hionic Fluor (Perkin-Elmer) liquid scintillation counter cocktail followed by measurement of the radioactivity in the cell lysate with a liquid scintillation counter (Packard). The determined radioactivity of the ^3H-labeled was used as an indicator of the amount of glucose taken up into the cells."}, "[4]": {"tested_on": "C57BL/ksj-db/db mouse adipocytes", "assay": "Glucose uptake test using isolated adipocytes from pravastatin-dosed C57BL/ksj-db/db mice", "type": "in vivo", "details": "isolated epididymal adipocytes from C57BL/ksj-db/db mice dosed with pravastatin for 1 week, insulin, 3H-2-deoxyglucose", "procedure": "as §1, §2"}, "C57BL/ksj-db/db mice [5]": {"tested_on": "C57BL/ksj-db/db mice", "assay": "Insulin tolerance test using pravastatin-dosed mice", "type": "in vivo, mouse", "details": "pravastatin in feed for 2 weeks, 60 minutes after insulin 1 u/kg i.p., non-dose group 411 mg/dl", "procedure": "as §3, with “2 hours.” for “16 hours starting on the day before the start of the test.”, “insulin (Humalin, Lilly)” for “glucose solution (0.5 g/l)”, “at 1 u/kg,” for “to 2 g/kg,”"}}, "data": [{"smiles": "CC[C@H](C)C(=O)O[C@H]1C[C@H](O)C=C2C=C[C@H](C)[C@H](CC[C@@H](O)C[C@@H](O)CC(=O)O)[C@H]21", "note": "[pravastatin, (+)-(3R,5R)-3,5-dihydroxy-7-[(1S,2S,6S,8S,8aR)-6-hydroxy-2-methyl-8-[(S)-2-methylbutyryloxy]-1,2,6,7,8,8a-hexahydro-1-naphthyl]heptanoic acid]", "values": [{"measurement": "amount of glucose uptake by dose group relative to non-dose group", "setting": "[1]", "result": 1.4, "unit": "times"}, {"measurement": "blood glucose level in glucose tolerance test", "setting": "C57BL/ksj-db/db mice [2]", "result": 342, "unit": "mg/dL"}, {"measurement": "blood glucose level", "setting": "KKAy mice", "result": 351, "unit": "mg/dL"}, {"measurement": "blood glucose level", "setting": "C57BL/ksj-db/db mice [3]", "result": 438, "unit": "mg/dL"}, {"measurement": "amount of glucose uptake into the cells relative to control group", "setting": "3T3-L1 adipocytes", "result": 1.9, "unit": "times"}, {"measurement": "amount of glucose uptake by dose group relative to non-dose group", "setting": "[4]", "result": 2.0, "unit": "times"}, {"measurement": "blood glucose level in insulin tolerance test", "setting": "C57BL/ksj-db/db mice [5]", "result": 324, "unit": "mg/dL"}]}]}
